Assay results taken from patent US20130005670A1, “COMBINATION COMPOSITION, COMPRISING AS ACTIVE INGREDIENTS L-CARNITlNE OR PROPIONYL L-CARNITlNE, FOR THE PREVENTION OR TREATMENT OF CHRONIC VENOUS INSUFFICIENCY” (SIGMA-TAU INDUSTRIE FARMACEUTICHE RIUNITE S.P.A., priority 2010, published 2013).

Key:
[1] = tested on: croton oil-induced hemorrhoid model in rats; test: croton oil-induced hemorrhoid model in rats (recto-anus coefficient); format: in vivo, rat; details: 24 hours after induction with croton oil (3%); oral once per day for five days; 20 mg/kg propionyl L-carnitine or L-carnitine, 30 mg/kg troxerutine, diosmine or hesperidine; RAC = weight of recto-anus (mg)/body weight (g); n = 5 rats
Protocol: Reduction of the Swelling of the Recto-Anus, in Croton Oil-Induced Hemorrhoid Model in Rats.
Male SD rats (6 weeks old, approximately 140 g) were purchased from Harlan Sprague Dawley and allowed to acclimate for 1 week. The rats were maintained in a pathogen-free facility in accordance with the National Research Council of Laboratory Animal care and use guidelines. Each experiment was preformed with age-matched rats 7-8 weeks old. The croton oil-induced hemorrhoid model in rats was performed according to the method published by Nishiki (Nishiki et al. (1988) Folia Pharmacology Japan 92:215-225; Nishiki et al. (1988) Folia Pharmacol. Japan 92:227-240). Briefly, a cotton swab with a diameter of 4 mm soaked with 0.16 mL of inducer (deionized water: pyridine: ethyl ether: 6% croton oil/ethyl ether (1:4:5:10) was applied to the rat's anus for 12 seconds. The final concentration of croton oil was 3%. The edema developed linearly until 7-8 hours after application and the severity of the edema was sustained for more than 24 hours. Twenty-four hours later, recto-anus tissue (approx. 10 mm long) was isolated after the rats were euthanized. The weights of rat body and recto-anus were measured. The recto-anus coefficient (RAC) was calculated using the formula: weight of recto-anus (mg)/body weight (g).
The compounds of the invention were administered orally suspended in saline (1 mL) once per day for five days. Last treatment with the compounds of the invention was made the day of induction of oedema with croton oil.
The compounds of the invention were administered alone or in combination at the following doses: 20 mg/kg propionyl L-carnitine or L-carnitine; 30 mg/kg troxerutine, diosmine or hesperidine.
Twenty-four hours after hemorrhoid induction with croton oil the RAC of rats was determined.

[2] = tested on: aortic rings precontracted by phenylephrine; test: relaxant effect on aortic rings precontracted by phenylephrine; parameters: species or system spontaneously hypertensive rats; details: 100 micro-molar each component, final concentration in organ chamber; SHR aortic rings precontracted by phenylephrine (1 micromolar); n=8
Protocol: Relaxant Effect on Aortic Rings of the Compounds Tested. The objective of this study was to investigate the vasoarelaxation effects of the compositions of the invention using isolated aorta from spontaneously hypertensive rats. The compounds tested were used at a concentration expressed as final concentration in the organ chamber. Male spontaneously hypertensive rats (SHR) 10-12 weeks old, weighing 250-300 g, were housed at 24±2° C. with 60±20% relative humidity, on a 12-h light-dark cycle. Rats were given free access to a diet of standard food and water. All experiments were performed according to the guidelines for the ethical treatment of animals of the European Union. The rats were killed by cervical dislocation and the aortae were rapidly dissected. The descending thoracic aorta was placed in a modified Krebs-Henseleit solution (PSS) containing (mM): NaCl 118, KCl 4.75, NaHCO3 25, MgSO4 1.2, CaCl2 1.8, KH2PO4 1.2 and glucose 11. After excess fat and connective tissue were removed, the aortae were cut into 2-3-mm rings. Aortic rings were mounted under a basal tension of 2 g in 20 mL organ baths containing PSS and attached to an isometric transducer (Harvard UF-1); the signal was recorded by a Powerlab data acquisition system (AD-Instruments). The tissue bath was maintained at 37° C. and bubbled with a 95% O2 and 5% CO2 gas mixture. The relaxant effect of compounds tested was assessed by adding the compound to aortic rings precontracted by phenylephrine (1 micromolar). After the aortae were contracted with phenylephrine and when the contractile response was reached, the test compound was added to the bath. All the results were expressed as a percentage of the maximal contraction of phenylephrine-induced responses. Results are expressed as percentages from the initial precontraction level. The significance was calculated on the actual contraction values means±SE (n=8 aorta preparations per group). Eight preparations were studied from a single aorta. The Student t-test was used as the comparison test for statistical analysis.

SMILES | RAC (recto-anus coefficient) [1] | % RELAXATION [2] [%]
COc1ccc(-c2cc(=O)c3c(O)cc(O[C@@H]4O[C@H](CO[C@@H]5O[C@@H](C)[C@H](O)[C@@H](O)[C@H]5O)[C@@H](O)[C@H](O)[C@H]4O)cc3o2)cc1O [Diosmine, diosmine] | 2.02 | 10
COc1ccc([C@@H]2CC(=O)c3c(O)cc(O[C@@H]4O[C@H](CO[C@@H]5O[C@@H](C)[C@H](O)[C@@H](O)[C@H]5O)[C@@H](O)[C@H](O)[C@H]4O)cc3O2)cc1O [Hesperidine, hesperidine] | 2.07 | 9
C[N+](C)(C)C[C@H](O)CC(=O)[O-] [L-carnitine] | 1.99 | 25
CCC(=O)O[C@H](CC(=O)[O-])C[N+](C)(C)C [Propionyl L-carnitine, propionyl L-carnitine] | 1.96 | 28
C[C@@H]1O[C@@H](OC[C@H]2O[C@@H](Oc3c(-c4ccc(OCCO)c(OCCO)c4)oc4cc(OCCO)cc(O)c4c3=O)[C@H](O)[C@@H](O)[C@@H]2O)[C@H](O)[C@H](O)[C@H]1O [Troxerutine] | 2.11 | 10
